Test results published in patent US12480920B2, “Method for the detection and quantification of fosfomycin, impurities and degradation products thereof” (MEITHEAL PHARMACEUTICALS, INC., priority 2019, dated 2025).

Assay: Stability study of fosfomycin for injection drug product: analysis of impurities by HILIC-HPLC with CAD detection
Type: physicochemical
Settings: fosfomycin for injection drug product (vials, 7.92 g fosfomycin disodium + 150 mg succinic acid), 25° C. and 60% RH; for wt % of impurities at time points (months): 0: 0 months; for wt % of impurities at time points (months): 1: 1 month; for wt % of impurities at time points (months): 3: 3 months; for wt % of impurities at time points (months): 6: 6 months; for wt % of impurities at time points (months): 9: 9 months; for wt % of impurities at time points (months): 12: 12 months
Protocol: As part of a stability study of fosfomycin for injection drug product, analysis of impurities was performed according to the method of the present invention, using HILIC-HPLC method with CAD detection, as disclosed, for example, in example 2.
The sample subjected to the stability test was fosfomycin for injection drug product, namely, vials containing sterile dry powder admixture of 7.92 g of fosfomycin disodium and 150 mg of succinic acid.
The samples were kept at 25° C. and 60% RH. Analysis of impurities was performed at the following time points: 0, 1, 3, 6, 9 and 12 months. Impurities are reported at weight percentage 0.05% (limit of detection of the method). “Dtd.” in the table stands for “detected”, meaning that the impurity is detected but is under the limit of detection (0.05 wt %). ND stands for “not detected”.

Row | Structure (SMILES) | wt % of impurities at time points (months): 0 | wt % of impurities at time points (months): 1 | wt % of impurities at time points (months): 3 | wt % of impurities at time points (months): 6 | wt % of impurities at time points (months): 9 | wt % of impurities at time points (months): 12
1 | CC(OP(=O)(O)C1OC1C)C(O)P(=O)(O)O (stereo not drawn) [Dimer1] | 0.05 wt % | 0.06 wt % | 0.05 wt % | 0.08 wt % | 0.06 wt % | 0.09 wt %
2 | CC(OP(=O)(O)C1OC1C)C(O)P(=O)(O)O (stereo not drawn) [Dimer2] | 0.05 wt % | Dtd. (“Dtd.” in the table stands for “detected”, meaning that the impurity is detected but is under the limit of detection (0.05 wt %)) | 0.07 wt % | 0.10 wt % | 0.08 wt % | 0.11 wt %
3 | CC(OP(=O)(O)C1OC1C)C(O)P(=O)(O)O (stereo not drawn) [Dimer3] |  |  |  |  |  | Dtd. (“Dtd.” in the table stands for “detected”, meaning that the impurity is detected but is under the limit of detection (0.05 wt %))
4 | CCOC(C(C)O)P(=O)(O)O (stereo not drawn) [Ethanol adduct] |  |  | Dtd. (“Dtd.” in the table stands for “detected”, meaning that the impurity is detected but is under the limit of detection (0.05 wt %)) |  | Dtd. (“Dtd.” in the table stands for “detected”, meaning that the impurity is detected but is under the limit of detection (0.05 wt %)) | Dtd. (“Dtd.” in the table stands for “detected”, meaning that the impurity is detected but is under the limit of detection (0.05 wt %))
5 | CC(O)C(O)P(=O)([O-])[O-].[Na+].[Na+] (stereo not drawn) [Impurity A, (1,2-dihydroxypropyl)phosphonate] | Dtd. (“Dtd.” in the table stands for “detected”, meaning that the impurity is detected but is under the limit of detection (0.05 wt %)) | 0.06 wt % | 0.07 wt % | 0.09 wt % | 0.11 wt % | 0.10 wt %
6 | COC(C(C)O)P(=O)(O)O (stereo not drawn) [Methanol adduct] | 0.07 wt % | 0.18 wt % | 0.13 wt % | 0.35 wt % | Dtd. (“Dtd.” in the table stands for “detected”, meaning that the impurity is detected but is under the limit of detection (0.05 wt %)) | 0.12 wt %
7 | C=CCP(=O)(O)O [Olefinic acid, 2-propenyl phosphonic acid] | 0.40 wt % | 0.46 wt % | 0.39 wt % | 0.42 wt % | 0.36 wt % | 0.40 wt %
8 | CC(OP(=O)(OC(C)C(O)P(=O)(O)O)C1OC1C)C(O)P(=O)(O)O (stereo not drawn) [Trimer] | Dtd | 0.07 wt % |  | Dtd. (“Dtd.” in the table stands for “detected”, meaning that the impurity is detected but is under the limit of detection (0.05 wt %)) | Dtd. (“Dtd.” in the table stands for “detected”, meaning that the impurity is detected but is under the limit of detection (0.05 wt %)) | Dtd. (“Dtd.” in the table stands for “detected”, meaning that the impurity is detected but is under the limit of detection (0.05 wt %))
